Measured values: patent publication US20260150871A1, “TASTE MODIFYING COMPOSITIONS AND USES THEREOF” (Firmenich Incorporated, priority 2022, published 2026)

Columns and labels:
Format in all cases: in vivo
Panelists [1] = assay: MSG reduction with potato crisp: panel sensory rating; conditions: Sample S1: 5 ppm TM1 on potato crisp, 2 wt % flavoring (sour cream and onion), 0.03 wt % MSG, 0.008 wt % purinic ribonucleotide, mean, scale of 0 to 10
Protocol: (§1) A test sample and a comparative sample were prepared. The comparative (sample C) was a standard potato crisp having 2 wt % flavoring (sour cream and onion), 0.03 wt % MSG, and 0.008 wt % purinic ribonucleotide. This reflects a 75% reduction of the standard amount of MSG used in such products (0.12 wt %). The test sample contained flavoring, MSG, and purinic ribonucleotide in the same amounts as the comparative sample plus 5 ppm of TM1 (sample S1). Panelists were asked to rate the intensity of certain sensory features of the samples on a scale of 0 to 10. Higher numbers indicate greater intensity.

Panelists [2] = assay: Umami enhancement of MSG: panel sensory rating of aqueous sodium chloride/MSG samples; conditions: mean, scale of 0 to 10; for Lasting Umami Intensity: Sample C 3.1; for Saltiness Intensity: Sample C 3.6; for Umami Intensity: Sample C 4.0
Protocol: A series of test samples and a comparative sample were prepared. The comparative sample (C) contained 0.3 wt % sodium chloride and 0.05 wt % MSG. Two test samples were prepared. Each test sample contained sodium chloride and MSG in the same amounts as the comparative sample plus 2 ppm of TM1 (sample S1) or 5 ppm of TM1 (sample S2). Panelists were asked to rate the intensity of certain sensory features of the samples on a scale of 0 to 10. Higher numbers indicate greater intensity.

Panelists [3] = assay: Flavor modification of chicken broth: panel sensory rating; conditions: 0.7 wt % sodium chloride, 0.04 wt % MSG, mean, scale of 0 to 10; for Lasting Umami Intensity: Sample C 3.1; for Umami Intensity: Sample C 4.3; for White Meat Intensity: Sample C 4.8; for Saltiness Intensity: Sample C 4.9; for Chicken Flavor Intensity: Sample C 5.3
Protocol: A series of test samples and a comparative sample were prepared. The comparative sample (C) was a standard reconstituted chicken broth solution containing 0.7 wt % sodium chloride and 0.04 wt % MSG. Two test samples were prepared. Each test sample contained chicken broth, sodium chloride, and MSG in the same amounts as the comparative sample plus 3 ppm of TM1 (sample S1) or 5 ppm of TM1 (sample S2). Panelists were asked to rate the intensity of certain sensory features of the samples on a scale of 0 to 10. Higher numbers indicate greater intensity.

Panelists [4] = assay: MSG reduction with soy-based vegan chicken nugget: panel sensory rating; conditions: Sample S1: 5 ppm TM1 in soy-based vegan chicken nugget, 1.68 wt % flavoring (chicken), 0.4 wt % MSG, 0.03 wt % purinic ribonucleotide, mean, scale of 0 to 10
Protocol: as §1, with “soy-based vegan chicken nugget” for “potato crisp”, “1.68” for “2”, “(chicken), 0.4” for “(sour cream and onion), 0.03”, “0.03” for “0.008”, “ribonucleotide.” for “ribonucleotide. This reflects a 75% reduction of the standard amount of MSG used in such products (0.12 wt %).”

[5] = Sample C 2.1, * significant vs C
[6] = Sample S1: 2 ppm TM1 + 0.3 wt % sodium chloride + 0.05 wt % MSG
[7] = Sample S2: 5 ppm TM1 + 0.3 wt % sodium chloride + 0.05 wt % MSG, * significant vs C
[8] = Sample S1: 3 ppm TM1 in chicken broth, * significant vs C
[9] = Sample S2: 5 ppm TM1 in chicken broth, * significant vs C
[10] = Sample S2: 5 ppm TM1 in chicken broth

C/C(=C\CO)C(=O)NCCCCNC(=O)/C=C/c1ccccc1 [TM1, (E)-N-(4-cinnamamidobutyl)-4-hydroxy-2-methylbut-2-enamide]
Lasting Umami Intensity (Panelists [1]; [5]): 2.8* | Sour Intensity (Panelists [1]; [5]): 2.9* | Saltiness Intensity (Panelists [1]; Sample C 2.9): 3.1 | Umami Intensity (Panelists [1]; Sample C 3.0, * significant vs C): 3.6* | Lasting Umami Intensity (Panelists [2]; Sample S1: 2 ppm TM1 + 0.3 wt % sodium chloride + 0.05 wt % MSG, * significant vs C): 4.2* | Saltiness Intensity (Panelists [2]; [6]): 3.8 | Umami Intensity (Panelists [2]; [6]): 4.8 | Lasting Umami Intensity (Panelists [2]; [7]): 5.4* | Saltiness Intensity (Panelists [2]; Sample S2: 5 ppm TM1 + 0.3 wt % sodium chloride + 0.05 wt % MSG): 3.8 | Umami Intensity (Panelists [2]; [7]): 6.0* | Lasting Umami Intensity (Panelists [3]; [8]): 4.2* | Umami Intensity (Panelists [3]; [8]): 5.8* | White Meat Intensity (Panelists [3]; [8]): 5.8* | Saltiness Intensity (Panelists [3]; Sample S1: 3 ppm TM1 in chicken broth): 5.2 | Chicken Flavor Intensity (Panelists [3]; [8]): 6.0* | Lasting Umami Intensity (Panelists [3]; [9]): 5.4* | Umami Intensity (Panelists [3]; [9]): 6.2* | White Meat Intensity (Panelists [3]; [10]): 4.8 | Saltiness Intensity (Panelists [3]; [10]): 4.8 | Chicken Flavor Intensity (Panelists [3]; [10]): 5.8 | Saltiness Intensity (Panelists [4]; Sample C 4.6): 4.4 | Umami Intensity (Panelists [4]; Sample C 5.1, * significant vs C): 5.8*
